One assay deals with T1, recombinant TLK1B (Homo sapiens, UniProt Q9UKI8).
T1 sequence (Q9UKI8 1-549 isoform Q9UKI8-3): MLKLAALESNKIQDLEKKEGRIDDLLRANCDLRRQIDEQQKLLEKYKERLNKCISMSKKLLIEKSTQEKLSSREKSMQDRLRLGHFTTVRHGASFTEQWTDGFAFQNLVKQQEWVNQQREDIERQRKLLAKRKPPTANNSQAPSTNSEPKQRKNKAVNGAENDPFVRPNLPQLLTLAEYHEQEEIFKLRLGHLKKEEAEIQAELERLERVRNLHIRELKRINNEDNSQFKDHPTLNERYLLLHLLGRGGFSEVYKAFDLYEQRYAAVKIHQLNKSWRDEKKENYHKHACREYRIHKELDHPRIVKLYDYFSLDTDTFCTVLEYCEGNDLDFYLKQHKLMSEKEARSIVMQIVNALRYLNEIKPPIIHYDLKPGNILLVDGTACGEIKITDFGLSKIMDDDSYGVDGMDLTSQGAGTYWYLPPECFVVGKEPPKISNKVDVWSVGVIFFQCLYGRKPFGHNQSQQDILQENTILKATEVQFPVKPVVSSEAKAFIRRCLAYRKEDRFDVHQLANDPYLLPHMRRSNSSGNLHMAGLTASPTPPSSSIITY
The assay is described as follows: TLK1B kinase assay with Nek1 peptide (ADP Hunter), inhibitor screening. It is filed as biochemical. Also on record: The full-length, 65 KDa recombinant human TLK1B (hTLK1B) for the in-vitro experiments was expressed and purified from bacteria; made in house; host or cells: bacteria. The procedure:
FIG. 8A-FIG. 25 show further experiments into the present invention, with FIGS. 8A-8G show kinase assays, inhibitor screening, IC50 evaluation and competitive assays. Recombinant TLK1B purified to homogeneity (FIG. 8A) is active in kinase assays (FIG. 8B) and phosphorylates a specific Nek1 peptide (FIG. 8C). […] All experiments were conducted in triplicates. The DiscoverRx ADP Hunter™ (Eurofins DiscoverRx, Fremont, CA, US) Kit was used to measure the generation of ADP resulting from kinase phosphorylation of substrate.
Chemical synthesis of J54 and several different Phenothiazines and Protein expression and purification: Details were explained in section B of supplementary of material and methods. The full-length, 65 KDa recombinant human TLK1B (hTLK1B) for the in-vitro experiments was expressed and purified from bacteria as described earlier.
Results: A new PTH potent inhibitor of TLK1B. A few PTH antipsychotics were identified in a screen the inventors conducted from a compounds library as good inhibitors of TLK1. To find additional inhibitors, recombinant TLK1B was purified (FIG. 8A). The enzymatic activity was determined using the ADP-Hunter reagents and a Nek1 peptide containing the T141 target site. […] Several structurally similar compounds were synthesized as described in the Appendix (and see NMR and MS data FIGS. 10 and 11) and tested at 20 μM (FIGS. 8E and 8F). […] The inventors continued the inventors' characterization of J54.

For another assay, the system named is LNCaP xenografts. The assay is described as follows: LNCaP xenograft model. It is filed as in vivo, NOD/SCID mice. As to conditions: IP bi-weekly. As to the method:
Treatment started 19 days after implantation when the tumors measure ˜200 mm^3. Two independent experiment with 5 mice per group were carried out. J54 and Bicalutamide was dissolved in DMSO and diluted in corn oil 1:10 and administered IP bi-weekly. Sectioning and processing of the tissues were carried out in the FWCC Histology Service, using automated processes and equipment to provide uniform and standardized results. Indirect labeling was with ABC Elite: RTU Vectastain Elite Reagent, Vector #PK-7100; DAB: ImmPact DAB, Vector #SK-4105. Light counterstaining was done with hematoxylin. […] Note the weak pNek1 stain in the tumor from mice treated with J54, in contrast to the increase seen with BIC.
LNCaP Xenograft Model and Immunohistochemistry (IHC): All animals used in this study were approved by LSUHSC IACUC and following ARRIVE guidelines. Male NOD/SCID mice (5 per group) were purchased from Jackson labs. LNCaP cells were injected as described earlier. Mice were treated IP bi-weekly with J54 (5 mg/kg body weight—dose estimation derived from pharmacokinetics study) and/or Bicalutamide (100 mg/kg).
The inventors sought to establish if the addition of J54 could suppress the resurgence of tumor growth of LNCaP xenografts and their latter conversion to CRPC. Following formation of sizeable tumors (˜200 mm^3), castration or anti-androgens arrest the progression of LNCaP xenografts for some time (2-3 weeks), while subsequently the tumors start growing again at an accelerated rate which is refractory to ADT (AI). Therefore, the inventors injected LNCaP cells in matrigel in both flanks of NOD-SCID mice, and then randomly assigned them to four treatment groups (n=5 per group×2 independent experiments), as shown in FIGS. 13A-13C. […] The inventors should also point out that the inventors treated the mice with J54 only bi-weekly due to the favorable pharmacokinetics, where maximal plasma concentration of 100 ng/ml ([…]) were reached 2 h after IP injection, and was still present at −6 ng/ml (6 μM) after 24 h (FIG. 18A-18C).

Molecules are shown by their SMILES.

As to `c1ccc2c(c1)Sc1ccccc1N2CCN1CCOCC1` [J54, 4-(2-(10H-phenothiazin-10-yl)ethyl) morpholine], the IC50 at recombinant TLK1B (new inhibitor screening assay) was 12.6 µM. Also, the “inhibition of TLK1B compared with standard” value at recombinant TLK1B (tested at 20 μM) is recorded as “more inhibitory than Staurosporin”. Also, the tumor weight result in the assay on LNCaP xenografts (end of treatment) is given as “significant suppression”. Besides, the tumor growth result with LNCaP xenografts (J54 5 mg/kg, Bicalutamide 100 mg/kg) is on record as “significant suppression”.

What is called IC50 is the point on the concentration scale where inhibition reaches its midpoint.

Values taken from US11826369B2, “Targeting the TLK1/NEK1 axis in prostate cancer” (Board of Supervisors of Louisiana State University and …, priority 2019, dated 2023).
